In brackets after ≈: the same amount, converted by molar mass.

The test system of one data set is K. pneumonia. Further details: method as in PMID 24736857. The conditions noted are these: cited from earlier work.
A further data set relates to nematode. As to the kind of experiment: anti-nematode activity.
In the next data set the target is T1, SHP1 (Homo sapiens, UniProt P29350).
T1 construct: incubated at 37 °C with 2.5 μg domain protein
T1 sequence (P29350 244-515 limits assumed): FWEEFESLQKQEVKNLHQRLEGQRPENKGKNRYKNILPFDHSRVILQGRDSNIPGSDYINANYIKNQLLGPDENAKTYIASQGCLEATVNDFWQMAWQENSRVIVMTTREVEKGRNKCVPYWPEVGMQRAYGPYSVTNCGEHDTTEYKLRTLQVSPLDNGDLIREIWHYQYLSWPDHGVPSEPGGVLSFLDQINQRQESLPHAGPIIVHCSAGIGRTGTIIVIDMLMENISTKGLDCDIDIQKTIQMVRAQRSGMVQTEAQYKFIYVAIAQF
In words: PTP inhibitory activity (p-NPP degradation), SHP1. The format is biochemical. The note with it: p-NPP substrate, 37 °C, 30 min, 405 nm; mean ± SD, n = 3. As for the experimental part:
(§1) The diabetes-related PTPs (PTP1B, TCPTP, SHP1 and CD45) inhibitory activity of the tested compounds was measured as previously described. The compounds were dissolved in DMSO and incubated at 37 °C with 2.5 μg domain protein, 20 mM 3-(N-Morpholino) propanesulfonic (MOPS), 9 mM p-nitrophenyl phosphate (p-NPP), 50 mM NaCl and 50 mM DTT, pH 7.2. The reaction was performed in a 96-well plate (DMSO as blank control). The reaction was started by adding the assay buffer (50 mM citrate (pH 6.0), 0.1 M NaCl, 1 mM EDTA, and 1 mM dithiothreitol) with a final volume of 150 μL and incubated at 37 °C for 30 min and 10 M NaOH was added to terminate the reaction. The inhibition of PTPs by tested compounds was assessed by measuring the degradation of p-NPP at a wavelength of 405 nm.

A further data set concerns the target T2, PTP1B (Homo sapiens, UniProt P18031).
T2 construct: incubated at 37 °C with 2.5 μg domain protein
T2 sequence (P18031 3-277 limits assumed): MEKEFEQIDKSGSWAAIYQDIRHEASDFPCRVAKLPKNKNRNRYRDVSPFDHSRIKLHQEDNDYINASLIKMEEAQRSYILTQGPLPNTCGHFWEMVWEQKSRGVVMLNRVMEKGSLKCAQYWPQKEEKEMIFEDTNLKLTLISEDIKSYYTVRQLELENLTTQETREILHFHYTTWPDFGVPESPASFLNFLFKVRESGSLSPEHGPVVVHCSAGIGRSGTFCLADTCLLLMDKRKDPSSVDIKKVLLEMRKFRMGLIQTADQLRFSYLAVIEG
In words: PTP inhibitory activity (p-NPP degradation), PTP1B. It counts as biochemical. The note with it: p-NPP substrate, 37 °C, 30 min, 405 nm; mean ± SD, n = 3. As for the experimental part:
as §1

Another data set deals with T3, TCPTP (Homo sapiens, UniProt P17706).
T3 construct: incubated at 37 °C with 2.5 μg domain protein
T3 sequence (P17706 5-275 limits assumed): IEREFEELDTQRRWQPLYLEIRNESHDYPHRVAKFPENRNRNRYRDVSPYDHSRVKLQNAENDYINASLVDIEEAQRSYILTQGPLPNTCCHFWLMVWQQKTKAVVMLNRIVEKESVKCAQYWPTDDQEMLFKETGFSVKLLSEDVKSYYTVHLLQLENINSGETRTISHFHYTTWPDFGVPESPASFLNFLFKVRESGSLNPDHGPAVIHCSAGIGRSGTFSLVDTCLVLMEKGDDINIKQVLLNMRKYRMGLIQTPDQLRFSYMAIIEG
In words: PTP inhibitory activity (p-NPP degradation), TCPTP. It counts as biochemical. The conditions noted are these: p-NPP substrate, 37 °C, 30 min, 405 nm; mean ± SD, n = 3. As for the experimental part:
as §1

For another data set, the target named is T4, CD45 (Homo sapiens, UniProt P08575).
T4 sequence (P08575 653-912 limits assumed): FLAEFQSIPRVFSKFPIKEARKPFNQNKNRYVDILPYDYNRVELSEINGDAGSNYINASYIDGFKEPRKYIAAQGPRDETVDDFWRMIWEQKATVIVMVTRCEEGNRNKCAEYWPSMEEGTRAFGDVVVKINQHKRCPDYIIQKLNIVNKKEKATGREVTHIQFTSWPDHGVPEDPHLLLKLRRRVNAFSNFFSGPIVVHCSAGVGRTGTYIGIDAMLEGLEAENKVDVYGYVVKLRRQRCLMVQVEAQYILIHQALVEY
As to the kind of experiment: PTP inhibitory activity (p-NPP degradation), CD45. The format is biochemical. The conditions noted are these: p-NPP substrate, 37 °C, 30 min, 405 nm; mean ± SD, n = 3. How it is done: as §1

A further data set concerns A-549 cells. Details: method as in PMID 18505285. The note with it: read-out: IC50 cytotoxicity against A-549 cells; cited from earlier work.
For the next data set, the system named is HDAC. Details: method as in PMID 15808449, PMID 31201063. The note with it: cited from earlier work.
Another data set relates to A. sydowii DL1045. In words: effect of SAHA on growth and fermentation of A. sydowii DL1045. It counts as cell-based, Aspergillus sydowii DL1045. As for the experimental part:
After A. sydowii DL1045 in rice extract culture medium was treated with three different histone deacetylase inhibitors, including suberoylanilide hydroxamic acid (SAHA), […] and nicotinamide, the fermentation status of the fungi was observed. […] The fermentation broth of A. sydowii DL1045 in the control group was dark green, whereas the fermentation broth in the 250 μM SAHA treatment group was golden yellow (Figure 1a,b). In addition, after 10 days, the weight of metabolites was 3.5 times lower in the SAHA group than in the control group (Figure S1, Supplementary Materials). […] This conjecture was confirmed by the results of scanning electron microscopy, and after 10 days of fermentation, the spores detached from the sporangium after maturation in the later stage of fermentation (Figure 1c).
A. sydowii DL1045 was retrieved from deep-sea mud sediment off the coast of Dalian, Liaoning Province, 121.55 °E and 38.88 °N, China. A. sydowii DL1045 was cultivated on potato dextrose agar (PDA) medium, consisting of 200 g/L of potato, 30 g/L of NaCl, 15 g/L of agar, and 20 g/L of dextrose and incubated for three days at 28 °C with 60% humidity. […]

The test system of the next data set is two weeds. Further details: method as in PMID 11076561. The conditions noted are these: cited from earlier work.
The subject of another data set is Staphylococcus aureus. Details: method as in PMID 32449250. The note with it: cited from earlier work.
A further data set concerns α-glucosidase. Further details: method as in PMID 24436963. The note with it: cited from earlier work.

Turning to `C/C(=C/CCC(C)C)c1ccc(CO)cc1O` [(Z)-5-(Hydroxymethyl)-2-(6′) methylhept-2′-en-2′-yl)-phenol, reference compound], the “MIC against K. pneumonia” value in the data set with K. pneumonia is given as 10.7 mM (≈ 2510 µg/mL).
For `C/C(=C\CCC(C)C)c1ccc(CO)cc1O` [Compound A4, aspergillusene A], the half-inhibitory concentration (IC50) was > 100 µM in the data set on nematode; 8.69 ± 0.26 µM at SHP1; 9.65 ± 0.73 µM on PTP1B; > 20 µM on TCPTP; > 20 µM against CD45. Also, the “MIC against K. pneumonia” value in the data set on K. pneumonia was 21.4 mM (≈ 5010 µg/mL).
As to `COc1ccc2c(C[C@@H]3NC(=O)[C@@H]4CCCN4C3=O)c(C(=O)C=C(C)C)[nH]c2c1` [18-oxotryprostatin A], the IC50 with A-549 cells was 1.28 µM.
Turning to `O=C(O)CCCCCCC(=O)Nc1ccccc1` [Compound S2, suberanilic acid], the HDAC inhibitory activity result in the data set with HDAC was “displayed HDAC inhibitory activity”.
Regarding `Cc1cc(O)cc(Oc2cc(C)cc(O)c2)c1` [Compound A3, diorcinol], the IC50 was 50 µM with nematode; 0.96 ± 0.02 µM on SHP1; > 20 µM at PTP1B; > 20 µM on TCPTP; 4.03 ± 0.13 µM at CD45. For the same compound, the “MIC against K. pneumonia” value with K. pneumonia was 21.7 mM (≈ 5000 µg/mL).
With `COc1ccc2c(c1)NC(=O)[C@@]21C=C2C(=O)N3CCC[C@H]3C(=O)N2[C@H]1C=C(C)C` [6-methoxyspirotryprostatin B], in the data set with A-549 cells, the half-inhibitory concentration (IC50) is 8.29 µM.
For the compound `O=C(CCCCCCC(=O)Nc1ccccc1)NO` [SAHA, suberoylanilide hydroxamic acid], the “effect on mycelial growth and spore germination” value in the data set on A. sydowii DL1045 (250 μM SAHA, 10 days, scanning electron microscopy) was “inhibited mycelial growth and spore germination”. Also, the “weight of metabolites, times lower in SAHA group than in control group” value in the data set with A. sydowii DL1045 (after 10 days, ethyl acetate extract (Figure S1)) is given as 3.5 times.
With `Cc1cc(O)cc(OC(=O)c2c(C)cc(O)cc2O)c1` [Compound A9, lecanorin], the IC50 in the data set with nematode is > 100 µM; against SHP1, 6.01 ± 0.18 µM; against PTP1B it was 7.6 ± 0.21 µM; against TCPTP, > 20 µM; at CD45, 7.4 ± 0.08 µM. The “inhibition of radicle growth and germination of two weeds” value in the data set with two weeds was “markedly inhibited the radicle growth and germination of the two weeds”.
As for `COC(=O)CCCCCCC(=O)Nc1ccccc1` [Compound S1, methyl 8-oxo-8-(phenylamino) octanoate], the HDAC inhibitory activity entry with HDAC is recorded as “displayed HDAC inhibitory activity”.
Turning to `Cc1cc(Oc2cc(O)cc(C)c2C(=O)O)cc(O)c1C(=O)O` [Compound A13, diorcinol acid], the half-inhibitory concentration (IC50) is > 100 µM with nematode; 2.16 ± 0.23 µM at SHP1; > 20 µM against PTP1B; > 20 µM against TCPTP; 4.46 ± 0.16 µM at CD45.
`COC(=O)/C=C/c1cc(OC)c(OC)c(OC)c1` [Compound A6, methyl trimethoxycinnamate]: in the data set with Staphylococcus aureus, the “inhibitory activity against Staphylococcus aureus” value is “showed inhibitory activity against Staphylococcus aureus”.
As to 14-hydroxyterezine D, the IC50 in the data set on A-549 cells is 7.31 µM.
`COc1ccc([C@H]2N[C@H](CO)[C@@H](O)[C@@H]2O)cc1O` [Compound A7, radicamine A]: in the data set with α-glucosidase, the α-glucosidase inhibitory activity entry was “exhibit α-glucosidase inhibitory activity”.

Source of the values: paper PMC10856041, “Chemical Epigenetic Regulation Secondary Metabolites Derived from Aspergillus sydowii DL1045 with Inhibitory Activities for Protein Tyrosine Phosphatases” (Molecules, 2024).
